Reference: article PMC9492542, “Brain-restricted mTOR inhibition with binary pharmacology” (Nature, 2022)
Values joined by “and” are separate entries in the source; they are usually repeats but may differ in a detail not shown here. Identical values can stand only once. Like-named read-outs stand apart in the source and are kept apart here.

Key:
FKBP12 = molecular target: T1, FKBP12 (Homo sapiens, UniProt P62942); assay: Competition fluorescence polarization assay with FITC-rapamycin tracer; type: binding
T1 construct: His-tag (HRV 3C cleavable) (cleaved yes); made in house; host or cells: Escherichia coli BL21(DE3)
Protocol: Compound binding affinity was determined using a competition fluorescence polarization assay. […] The assay buffer was 20 mM HEPES pH 7.5 and 0.01% Triton X-100. […] Data were fitted to a three-parameter sigmoidal curve to derive IC50 values. Ki of the compounds were calculated using a tool provided by S. Wang’s laboratory (http://www.umich.edu/~shaomengwanglab/software/calc_ki/index.html). Data were plotted in GraphPad Prism 9.0.

NFAT = NFAT activation assay (Jurkat-Lucia NFAT luciferase reporter, PMA/ionomycin); type: cell-based; settings: for IC50: Homo sapiens, Jurkat NFAT luciferase, PMA + ionomycin
Protocol: Jurkat-Lucia NFAT cells were resuspended to 2 × 10^6 cells per ml in fresh growth medium and dispensed in 96-well tissue culture plates (Corning 3904; 180 µl per well). DMSO solutions of test compounds at 100× the test concentrations were added and the cells were incubated for 4 h at 37 °C. A 10× stimulation solution containing phorbol myristate acetate (100 ng ml^–1) and ionomycin (10 µg ml^–1) were added to each well (20 µl per well) except for the negative control wells, which were supplemented with 20 µl medium. Cells were incubated at 37 °C for 12 h. Cells (20 µl per well) were transferred into a white opaque 96-well plate (Corning 3912). TECAN Spark 20M plate reader equipped with an auto-injection system was primed with Lucia luciferase substrate solution and set with the following parameters: 50 µl of injection volume, end-point measurement with a 4-s delay time and 0.1-s integration time. Luciferase activity was measured with the settings above and normalized to DMSO-treated, stimulated cells. Data were plotted in GraphPad Prism 9.0.

human PBMCs = assay: Proliferation of anti-CD3/anti-CD28 stimulated PBMCs (120 h); type: cell-based
mTOR [1] = assay: mTOR signalling in mouse whole brain and skeletal muscle after single i.p. dose (immunoblot, insulin stimulated); type: in vivo; settings: for p-4EBP1 Brain, fold relative to no insulin, normalized to GAPDH / p-4EBP1 Muscle, fold relative to no insulin, normalized to GAPDH / p-RPS6 Brain, fold relative to no insulin, normalized to GAPDH / p-RPS6 Muscle, fold relative to no insulin, normalized to GAPDH: RL1 1 mg/kg, RB 40 mg/kg, insulin 250 mU, listed as RB
Protocol: Whole brain and skeletal muscle were analyzed by immunoblot.

U87MG = assay: Orthotopic intracranial U87MG-luciferase glioblastoma xenograft
GBM43 = assay: Orthotopic intracranial GBM43-luciferase patient-derived glioblastoma xenograft; settings: GBM43-Luc
mTOR [2] = assay: Immunoblot analysis of mTOR signalling (p-S6, p-4EBP1) in MCF7 cells, incl. screen for blocking of rapamycin/RapaLink-1; settings: for blocking of mTOR inhibition by RapaLink-1 in cells: 10 nM RapaLink-1 + 10 µM blocker, immunoblot
[3] = U87MG-Luc, day 0, individual mice
[4] = U87MG-Luc, day 5, individual mice
[5] = U87MG-Luc, day 10, individual mice
[6] = U87MG-Luc, day 15, individual mice
[7] = U87MG-Luc, day 20, individual mice

T1 sequence (P62942 whole entry): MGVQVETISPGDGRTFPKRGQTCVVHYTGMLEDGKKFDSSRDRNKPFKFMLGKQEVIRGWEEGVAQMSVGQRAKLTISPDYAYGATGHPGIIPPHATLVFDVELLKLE

CO[C@H]1C[C@@H](C)C/C(C)=C/[C@@H](CCCc2cccc[n+]2[O-])C(=O)C[C@H](O)[C@@H](C)[C@@H](/C(C)=C/[C@@H]2CC[C@@H](O)[C@H](OC)C2)OC(=O)[C@@H]2CCCCN2C(=O)C(=O)[C@]2(O)O[C@H]1[C@@H](OC)C[C@H]2C [RapaBlock]
fluorescence polarization (competition, raw) (FKBP12; 0.0976562 nM compound): 114 and 112 | fluorescence polarization (competition, raw) (FKBP12; 0.195312 nM compound): 114 and 112 | fluorescence polarization (competition, raw) (FKBP12; 0.390625 nM compound): 112 and 110 | fluorescence polarization (competition, raw) (FKBP12; 0.78125 nM compound): 110 and 109 | fluorescence polarization (competition, raw) (FKBP12; 1.5625 nM compound): 109 | fluorescence polarization (competition, raw) (FKBP12; 3.125 nM compound): 100 and 104 | fluorescence polarization (competition, raw) (FKBP12; 6.25 nM compound): 86 and 88 | fluorescence polarization (competition, raw) (FKBP12; 12.5 nM compound): 74 | fluorescence polarization (competition, raw) (FKBP12; 25 nM compound): 64 and 62 | fluorescence polarization (competition, raw) (FKBP12; 50 nM compound): 56 and 58 | fluorescence polarization (competition, raw) (FKBP12; 100 nM compound): 46 and 55 | Ki (FKBP12; Extended Data Fig. 4b, n = 3, read-out: Ki(FKBP12)): 1.4 nM | Ki (FKBP12; Fig. 2d, fluorescein-labelled rapamycin tracer, read-out: FKBP12 Ki): 3.1 nM | Kd (FKBP12; measured in-house in a single fluorescence polarization experiment, read-out: Kd3 (RapaBlock binding to FKBP)): 2.5 nM | Kd (FKBP12; recombinant FKBP12, Extended Data Fig. 2, read-out: Kd (FKBP12)): 1.6 nM | NFAT luciferase activity, normalized to DMSO-treated stimulated cells (NFAT; 0.00512 nM): 93 and 91.3 and 97 | NFAT luciferase activity, normalized to DMSO-treated stimulated cells (NFAT; 0.0256 nM): 97.8 and 104.3 and 98.9 | NFAT luciferase activity, normalized to DMSO-treated stimulated cells (NFAT; 0.128 nM): 95.3 and 89 and 97 | NFAT luciferase activity, normalized to DMSO-treated stimulated cells (NFAT; 0.64 nM): 97.6 and 92.3 and 99.2 | NFAT luciferase activity, normalized to DMSO-treated stimulated cells (NFAT; 16 nM): 100.2 and 101.6 and 105.7 | NFAT luciferase activity, normalized to DMSO-treated stimulated cells (NFAT; 80 nM): 104.1 and 109.3 and 105.3 | NFAT luciferase activity, normalized to DMSO-treated stimulated cells (NFAT; 400 nM): 109.4 and 107.4 and 106.7 | NFAT luciferase activity, normalized to DMSO-treated stimulated cells (NFAT; 2000 nM): 112.3 and 110 and 113.9 | NFAT luciferase activity, normalized to DMSO-treated stimulated cells (NFAT; 10000 nM): 112 and 113.2 and 110.3 | inhibitory activity for calcineurin (NFAT; Fig. 2e): does not exhibit any inhibitory activity for calcineurin | IC50 (NFAT): > 10000 nM | shift of RapaLink-1 IC50 for PBMC proliferation by addition of RapaBlock (human PBMCs; 5 days): more than 100 fold | protection of PBMCs from rapamycin-mediated growth inhibition (human PBMCs; compared with protection from RapaLink-1): appeared more effective at protecting PBMCs from rapamycin-mediated growth inhibition | relative proliferation compared to DMSO-treated cells (human PBMCs; constant 10 µM RapaBlock, low RapaLink-1/rapamycin concentrations): ~ 100% | p-4EBP1 Brain, fold relative to no insulin, normalized to GAPDH (mTOR [1]; 4h): 1.83 and 2 and 1.39 | p-4EBP1 Muscle, fold relative to no insulin, normalized to GAPDH (mTOR [1]; 4h): 1.7 and 2.09 and 1.93 | p-RPS6 Brain, fold relative to no insulin, normalized to GAPDH (mTOR [1]; 4h): 1.92 and 2.13 and 3 | p-RPS6 Muscle, fold relative to no insulin, normalized to GAPDH (mTOR [1]; 4h): 2.39 and 2.47 and 2.32 | p-4EBP1 Brain, fold relative to no insulin, normalized to GAPDH (mTOR [1]; 24h): 1.46 and 1.83 and 1.26 | p-4EBP1 Muscle, fold relative to no insulin, normalized to GAPDH (mTOR [1]; 24h): 2.04 and 2.08 and 2.19 | p-RPS6 Brain, fold relative to no insulin, normalized to GAPDH (mTOR [1]; 24h): 1.78 and 1.76 and 3.3 | p-RPS6 Muscle, fold relative to no insulin, normalized to GAPDH (mTOR [1]; 24h): 3.51 and 2.13 and 2.07 | tissue-specific protection from RapaLink-1 (in vivo screen) (mTOR [1]; RapaLink-1 1 mg per kg + candidate 40 mg per kg): protected peripheral tissues from RapaLink-1 but allowed potent inhibition of mTOR in the brain | tumour growth and survival (U87MG; RapaLink-1 1 mg per kg, RapaBlock 40 mg per kg, i.p. every 5 days): no significant effect on either | Mouse weight (U87MG; [3]): 23.7 g and 18.4 g and 20.5 g and 22.9 g and 23.2 g and 19.4 g | Tumor size (measured by bioluminescence) (U87MG; [3]): 17700000 and 2260000 and 10400000 and 10700000 and 2010000 and 11600000 | Mouse weight (U87MG; [4]): 25.1 g and 20.4 g and 22.3 g and 25.2 g and 24.1 g and 21.1 g | Tumor size (measured by bioluminescence) (U87MG; [4]): 43100000 and 13000000 and 366000 and 28000000 and 11500000 and 3180000 | Mouse weight (U87MG; [5]): 24.6 g and 21.1 g and 22.5 g and 25.3 g and 23.8 g and 21.3 g | Tumor size (measured by bioluminescence) (U87MG; [5]): 1970000 and 19800000 and 27300000 and 73500000 and 25400000 and 8750000 | Mouse weight (U87MG; [6]): 24.4 g and 21.8 g and 23 g (2×) and 25 g and 21.9 g | Tumor size (measured by bioluminescence) (U87MG; [6]): 1140000000 and 112000000 and 171000000 and 820000000 and 161000000 and 1140000 | Mouse weight (U87MG; [7]): 19.5 g and 24.1 g and 23.9 g and 23.1 g | Tumor size (measured by bioluminescence) (U87MG; [7]): 6750000000 and 1500000000 and 1360000000 and 47000000 and 739000000 | Mouse survival (U87MG; U87MG-Luc, individual mice): 25 days and 21 days and 28 days and 23 days | Mouse weight (GBM43; day 0, individual mice): 22.5 g and 18.4 g and 23.4 g and 24.1 g and 22.4 g and 24.3 g | Tumor size (measured by bioluminescence) (GBM43; day 0, individual mice): 545000 and 240000 and 88600 and 6780000 and 3240000 and 1560000 | Mouse weight (GBM43; day 4, individual mice): 22.5 g and 20 g and 24 g and 25.1 g and 23.3 g and 25 g | Tumor size (measured by bioluminescence) (GBM43; day 4, individual mice): 550000 and 781000 and 188000 and 20000000 and 920000 and 2990000 | Mouse weight (GBM43; day 7, individual mice): 22 g and 20 g and 25 g (2×) and 23.4 g and 25.8 g | Tumor size (measured by bioluminescence) (GBM43; day 7, individual mice): 42300000 and 19300000 and 2230000 and 1130000000 and 47100000 and 178000000 | Mouse weight (GBM43; day 10, individual mice): 21.7 g and 19.6 g and 24.5 g and 24.8 g (2×) and 22.7 g | Tumor size (measured by bioluminescence) (GBM43; day 10, individual mice): 782000000 and 3210000 and 104000000 and 3810000000 and 1590000000 and 1220000000 | Mouse survival (GBM43; individual mice): 16 days and 17 days and 18 days | blocking of rapamycin (phospho-S6 signal) (mTOR [2]; MCF7, 100:1 stoichiometry RapaBlock:rapamycin): restoring the phospho-S6 signal to the same level as untreated cells | attenuation of RapaLink-1 effects on mTOR signalling (mTOR [2]; MCF7, 4 h, with 10 nM RapaLink-1): attenuates the pharmacological effects of RapaLink-1 in a dose-dependent manner | effect on mTOR signalling by itself (mTOR [2]; cultured cells, up to 10 µM): does not affect mTOR signalling by itself

C=CC[C@@H]1/C=C(\C)C[C@H](C)C[C@H](OC)[C@H]2O[C@@](O)(C(=O)C(=O)N3CCCC[C@H]3C(=O)O[C@H](/C(C)=C/[C@@H]3CC[C@@H](O)[C@H](OC)C3)[C@H](C)[C@@H](O)CC1=O)[C@H](C)C[C@@H]2OC [FK506]
fluorescence polarization (competition, raw) (FKBP12; 0.0976562 nM compound): 108 | fluorescence polarization (competition, raw) (FKBP12; 0.195312 nM compound): 110 and 109 | fluorescence polarization (competition, raw) (FKBP12; 0.390625 nM compound): 108 | fluorescence polarization (competition, raw) (FKBP12; 0.78125 nM compound): 107 and 103 | fluorescence polarization (competition, raw) (FKBP12; 1.5625 nM compound): 104 and 103 | fluorescence polarization (competition, raw) (FKBP12; 3.125 nM compound): 92 and 96 | fluorescence polarization (competition, raw) (FKBP12; 6.25 nM compound): 75 and 72 | fluorescence polarization (competition, raw) (FKBP12; 12.5 nM compound): 66 and 60 | fluorescence polarization (competition, raw) (FKBP12; 25 nM compound): 57 and 55 | fluorescence polarization (competition, raw) (FKBP12; 50 nM compound): 53 and 55 | fluorescence polarization (competition, raw) (FKBP12; 100 nM compound): 46 and 51 | NFAT luciferase activity, normalized to DMSO-treated stimulated cells (NFAT; 0.00512 nM): 103.4 and 90.3 and 99.2 | NFAT luciferase activity, normalized to DMSO-treated stimulated cells (NFAT; 0.0256 nM): 93.6 and 87.2 and 91.4 | NFAT luciferase activity, normalized to DMSO-treated stimulated cells (NFAT; 0.128 nM): 35.5 and 35.2 and 38.5 | NFAT luciferase activity, normalized to DMSO-treated stimulated cells (NFAT; 0.64 nM): 0.2 | NFAT luciferase activity, normalized to DMSO-treated stimulated cells (NFAT; 16 nM): 0.1 | NFAT luciferase activity, normalized to DMSO-treated stimulated cells (NFAT; 80 nM): 0.1 and 0.2 | NFAT luciferase activity, normalized to DMSO-treated stimulated cells (NFAT; 400 nM): 0.1 and 0.2 | NFAT luciferase activity, normalized to DMSO-treated stimulated cells (NFAT; 2000 nM): 0.2 | NFAT luciferase activity, normalized to DMSO-treated stimulated cells (NFAT; 10000 nM): 0.2 | IC50 (NFAT): 0.094 ± 0.008 nM

CCON=C1C[C@H](O)[C@@H](C)[C@@H](/C(C)=C/[C@@H]2CC[C@@H](O)[C@H](OC)C2)OC(=O)[C@@H]2CCCCN2C(=O)C(=O)[C@]2(O)O[C@H]([C@@H](OC)C[C@@H](C)C/C(C)=C/[C@H]1CCCc1cccc[n+]1[O-])[C@@H](OC)C[C@H]2C [RapaBlock ethyl oxime]
Ki (FKBP12): 360 nM | blocking of mTOR inhibition by RapaLink-1 in cells (mTOR [2]): less potent at blocking RapaLink-1 | blocking of mTOR inhibition by RapaLink-1 in cells (mTOR [2]; listed as RapaBlock-Oxime): much less effective at blocking the inhibition
